Experiments:
[1] = absolute recovery over mixed-bed multilayer solid-phase extraction; higher = better recovery; conditions: enrichment method: SPE
In short: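 Absolute recovery was calculated by comparing background-corrected response ratios of samples spiked before extraction with those spiked after it, averaged over at least two replicates. Wastewater (100–250 mL, adjusted to pH 6.5 and glass-fibre filtered) or 1000 mL of unfiltered nanopure water was passed through a three-layer mixed-bed cartridge and eluted with basic and then acidic ethyl acetate/methanol. Standards were added before extraction, after extraction, or not at all, at 200 ng/L in water or 1000 ng/L in wastewater, with exceptions for some classes. Internal standards were added afterwards, and samples were analysed by liquid chromatography with high-resolution tandem mass spectrometry in both ionisation modes.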

[2] = LC retention time (Atlantis T3, 5-95% MeOH gradient, 0.1% formic acid); higher = more retained / less polar
In short: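 Retention times were recorded for reference standards on a polar reversed-phase C18 column. The standards were of purity ≥ 95%, and the Atlantis T3 column (3 × 150 mm, 3 μm) was run at 0.3 mL/min with a gradient from 5 to 95% methanol over 17.5 min, both water and methanol containing 0.1% formic acid. Detection used high-resolution tandem mass spectrometry on a QExactive Plus, with positive and negative electrospray in separate runs, and peaks were integrated in TraceFinder (5 ppm tolerance, at least three points per peak) before being checked by hand.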

[3] = absolute recovery over vacuum-assisted evaporative concentration; higher = better recovery; conditions: enrichment method: VEC
In short: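 After spiking with standards before concentration, after concentration or not at all, at 1000 ng/L for wastewater or 200 ng/L for nanopure and surface water with class- and compound-specific adjustments, samples of 6 mL influent, 15 mL effluent and 60 mL surface or nanopure water were evaporated at 55 °C and 20 mbar to about 0.3 mL. They were brought to 0.4 mL, centrifuged, given internal standards and analysed by LC-HRMS/MS. Absolute recovery, (response ratio pre − unspiked)/(post − unspiked) × 100, used averages of ≥ 2 replicates.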

SMILES | absolute recovery ([1]; wastewater effluent) [%] | absolute recovery ([1]; wastewater influent) [%] | LC retention time [2] [min] | absolute recovery ([3]; wastewater effluent) [%] | absolute recovery ([3]; wastewater influent) [%] | absolute recovery ([1]; nanopure water) [%] | absolute recovery ([1]; surface water) [%]
CCCCCCCCCCCCCC[N+](C)(C)CCCCCCCCCCCCCC [Dimethylditetradecylammonium (=ATMAC-18)] | 55.3 | 38.7 | 21.6 | 119 | 4.7 |  | 
CCC1OC(=O)C(C)C(OC2CC(C)(OC)C(O)C(C)O2)C(C)C(OC2OC(C)CC([NH+](C)C)C2O)C(C)(O)CC(C)C(=O)C(C)C(O)C1(C)O (configuration not stated) [Erythromycin] | 78.3 | 83.3 | 16.9 | 113 |  | 50.1 | 69.3
Cc1cc(Cl)ccc1OCC(=O)[O-] [MCPA] | 92.7 | 94.2 | 19.3 | 102 | 103 | 96.1 | 92.9
Cc1cc(C)cc(OCC2CNC(=O)O2)c1 (configuration not stated) [Metaxalone] | 87.1 | 87.9 | 17.8 | 95.8 | 99.2 | 104 | 85.9
O=S(=O)([O-])c1ccc2ccc(S(=O)(=O)[O-])cc2c1 [2-7-Naphthalenedisulfonic-acid] | 77.2 | 88.8 | 8.38 | 108 | 112 | 93.9 | 77.6
CC1(C)C(=O)Oc2ccc(OS(C)(=O)=O)cc21 [Ethofumesat-2-keto] | 76.7 | 88.3 | 15.2 | 101 | 82.2 | 69.5 | 50.8
C[NH2+]C1(c2ccccc2Cl)CCCCC1=O (configuration not stated) [Ketamin] | 82.9 | 90.4 | 11.7 | 101 | 105 | 83.7 | 82.3
CC(C)C([NH3+])C(=O)OCC(CO)OCn1cnc2c(=O)[nH+]c(N)[nH]c21 (configuration not stated) [Valganciclovir] | 69.7 | 69.5 | 7.61 | 83.6 | 72.2 | 82.7 | 63.7
COC(=O)c1ccc(I)cc1S(=O)(=O)[N-]C(=O)Nc1nc(C)nc(OC)n1 [Iodosulfuron-methyl] | 101 | 92.8 | 19 | 116 | 102 | 107 | 96.8
CCC[NH2+]C(C)C(=O)Nc1ccccc1C (configuration not stated) [Prilocain] | 81.8 | 87.2 | 11.7 | 109 | 106 | 82.5 | 83
Nc1cn[nH+]c([O-])c1Cl [Chloridazon-desphenyl] | 70.2 | 72.3 | 7.56 | 102 | 98.3 | 58.5 | 67.9
CCCC[NH+]1CCCCC1C(=O)Nc1c(C)cccc1C (configuration not stated) [Bupivacaine] | 90.3 | 93.7 | 13.9 | 104 | 103 | 92 | 93.1
COCc1cnc(C2=NC(C)(C(C)C)C(=O)N2)c(C(=O)[O-])c1 (configuration not stated) [Imazamox] | 90.7 | 90.4 | 15.1 | 104 | 94.7 | 92.3 | 93.4
O=C([O-])C(F)(F)C(F)(F)C(F)(F)F [PFBA] | 90.2 | 84.9 | 18.6 | 96.7 | 86.3 | 95.9 | 42.8
O=C(NCC(O)CO)c1c(I)c(C(=O)NCC(O)CO)c(I)c(N(CCO)C(=O)CO)c1I (configuration not stated) [Ioversol] | 57.2 | 36 | 7.88 | 83.7 | 86.5 | 55.7 | 
CCC(=O)OC(OP(=O)(CCCCc1ccccc1)CC(=O)N1CC(C2CCCCC2)CC1C(=O)[O-])C(C)C (configuration not stated) [Fosinopril] | 51.5 | 96.2 | 23.1 | 90.6 | 36.6 | 97.7 | 22
COc1ccc2c(c1OC)C(=O)OC2C1c2c(cc3c(c2OC)OCO3)CC[NH+]1C (configuration not stated) [Noscapin] | 91.8 | 103 | 12.8 | 85.7 | 89.8 | 80.1 | 89.2
Cc1nnc(-c2ccccc2)c(=O)n1N [Metamitron] | 95.8 | 97.5 | 14.3 | 106 | 98.5 | 97.1 | 
OC(Cc1ccccc1Cl)(Cn1cncn1)C1(Cl)CC1 (configuration not stated) [Prothioconazole-desethio] | 104 | 104 | 20.6 | 141 | 128 | 109 | 86.3
CCNc1nc(Cl)nc(NCC)n1 [Simazin] | 88.3 | 94.9 | 17.2 | 98.3 | 106 | 94.2 | 94.4
Cn1ncc(N)c(Cl)c1=O [Chloridazon-methyl-desphenyl] | 97 | 101 | 10.2 | 99.2 | 104 | 91.5 | 102
CN(C(=O)CO)c1c(I)c(C(=O)NCC(O)CO)c(I)c(C(=O)NCC(O)CO)c1I (configuration not stated) [Iomeprol] | 66.5 | 52.4 | 8.92 | 109 | 108 | 73.5 | 67.8
C[NH+]1CCCC1c1cccnc1 (configuration not stated) [Nicotine] | 47.9 | 52.5 | 11.1 | 76.9 | 79.1 | 35.1 | 27.7
CC([NH2+]C(C)(C)C)C(=O)c1cccc(Cl)c1 (configuration not stated) [Bupropion] | 74.3 | 78.3 | 13.5 | 51.1 | 31.5 | 79.1 | 78
CC(CN1c2ccccc2CCc2ccccc21)C[NH+](C)C (configuration not stated) [Trimipramin] | 95.3 | 54.3 | 16.2 | 101 | 104 | 89.9 | 102
CCOC1Oc2ccc(OS(C)(=O)=O)cc2C1(C)C (configuration not stated) [Ethofumesat] | 96.1 | 92 | 19.2 | 105 | 94 | 98.7 | 102
